{"source": "paper PMC12029227", "about": "“In Vitro Evaluation of Novel Furo[3,2-c]coumarins as Cholinesterases and Monoamine Oxidases Inhibitors” (Molecules, 2025)", "note": "“Also recorded” adds a separate entry of the source.", "data": [{"biological_target": "T1, hBChE (Homo sapiens, UniProt P06276)", "T1 construct": "purchased Sigma-Aldrich (Milan, Italy)", "T1 sequence (P06276 29-602)": "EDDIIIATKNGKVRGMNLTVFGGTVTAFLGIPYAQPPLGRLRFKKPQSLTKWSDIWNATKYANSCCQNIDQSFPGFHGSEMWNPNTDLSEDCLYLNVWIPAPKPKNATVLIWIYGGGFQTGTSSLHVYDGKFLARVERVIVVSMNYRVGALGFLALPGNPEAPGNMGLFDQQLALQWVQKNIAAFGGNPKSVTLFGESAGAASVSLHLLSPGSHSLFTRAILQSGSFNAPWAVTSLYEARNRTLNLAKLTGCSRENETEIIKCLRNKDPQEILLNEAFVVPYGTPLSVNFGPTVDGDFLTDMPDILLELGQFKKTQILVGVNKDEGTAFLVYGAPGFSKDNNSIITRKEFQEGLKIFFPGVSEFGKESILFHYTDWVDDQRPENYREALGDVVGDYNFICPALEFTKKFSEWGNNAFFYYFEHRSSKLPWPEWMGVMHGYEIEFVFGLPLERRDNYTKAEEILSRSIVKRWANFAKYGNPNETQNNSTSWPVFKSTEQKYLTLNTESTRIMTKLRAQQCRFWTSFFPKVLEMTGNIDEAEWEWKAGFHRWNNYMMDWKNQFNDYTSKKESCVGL", "assay": "biochemical", "format": "biochemical", "details": "human BChE; 10 μM; mean ± SEM", "units": {"inhibition at 10 µM": "%"}, "procedure": "All human enzymes, substrates and reagents were from Sigma-Aldrich (Milan, Italy). Experiments were run in 96-well plates from Greiner Bio-One (Kremsmenster, Austria) with an Infinite M1000 Pro multiplate reader (Tecan, Cernusco sul Naviglio, Italy). The inhibition of ChEs was determined by following Ellman’s spectrophotometric assay in transparent, flat-bottom plates [18]. […] Incubations were performed in triplicate and results were expressed as the mean ± SEM from 3 independent experiments. The values of IC50 were calculated by nonlinear regressions using GraphPad Prism 5.00 (GraphPad Software, San Diego, CA, USA).", "values": [{"smiles": "Cc1ccc([C@@H]2c3c(c4ccccc4oc3=O)O[C@H]2c2ccccc2S(C)(=O)=O)cc1", "note": "[Compound 2a]", "inhibition at 10 µM": "27 ± 12"}, {"smiles": "COc1ccc([C@@H]2c3c(c4ccccc4oc3=O)O[C@H]2c2ccccc2S(C)(=O)=O)cc1", "note": "[Compound 2b]", "inhibition at 10 µM": "29 ± 11"}, {"smiles": "CS(=O)(=O)c1ccccc1[C@@H]1Oc2c(c(=O)oc3ccccc23)[C@H]1c1ccc(Cl)cc1", "note": "[Compound 2c]", "inhibition at 10 µM": "< 5"}, {"smiles": "CS(=O)(=O)c1ccccc1[C@@H]1Oc2c(c(=O)oc3ccccc23)[C@H]1c1cccs1", "note": "[Compound 2d]", "inhibition at 10 µM": "< 5"}, {"smiles": "Cc1ccc(-c2c(-c3ccccc3S(C)(=O)=O)oc3c2c(=O)oc2ccccc23)cc1", "note": "[Compound 3a]", "inhibition at 10 µM": "< 5"}, {"smiles": "COc1ccc(-c2c(-c3ccccc3S(C)(=O)=O)oc3c2c(=O)oc2ccccc23)cc1", "note": "[Compound 3b]", "inhibition at 10 µM": "19 ± 9"}, {"smiles": "CS(=O)(=O)c1ccccc1-c1oc2c(c1-c1cccs1)c(=O)oc1ccccc12", "note": "[Compound 3d]", "inhibition at 10 µM": "21 ± 3"}]}, {"biological_target": "T1, hBChE", "assay": "biochemical", "format": "biochemical", "details": "summary of Table 1", "values": [{"smiles": "Cc1ccc([C@@H]2c3c(c4ccccc4oc3=O)O[C@H]2c2ccccc2S(C)(=O)=O)cc1", "note": "[Compound 2a]", "inhibitory activity toward hBChE (in words)": "very low percentage of inhibition"}, {"smiles": "COc1ccc([C@@H]2c3c(c4ccccc4oc3=O)O[C@H]2c2ccccc2S(C)(=O)=O)cc1", "note": "[Compound 2b]", "inhibitory activity toward hBChE (in words)": "very low percentage of inhibition"}, {"smiles": "CS(=O)(=O)c1ccccc1[C@@H]1Oc2c(c(=O)oc3ccccc23)[C@H]1c1ccc(Cl)cc1", "note": "[Compound 2c]", "inhibitory activity toward hBChE (in words)": "absence of inhibitory activities"}, {"smiles": "CS(=O)(=O)c1ccccc1[C@@H]1Oc2c(c(=O)oc3ccccc23)[C@H]1c1cccs1", "note": "[Compound 2d]", "inhibitory activity toward hBChE (in words)": "absence of inhibitory activities"}, {"smiles": "Cc1ccc(-c2c(-c3ccccc3S(C)(=O)=O)oc3c2c(=O)oc2ccccc23)cc1", "note": "[Compound 3a]", "inhibitory activity toward hBChE (in words)": "absence of inhibitory activities"}, {"smiles": "COc1ccc(-c2c(-c3ccccc3S(C)(=O)=O)oc3c2c(=O)oc2ccccc23)cc1", "note": "[Compound 3b]", "inhibitory activity toward hBChE (in words)": "very low percentage of inhibition"}, {"smiles": "CS(=O)(=O)c1ccccc1-c1oc2c(c1-c1cccs1)c(=O)oc1ccccc12", "note": "[Compound 3d]", "inhibitory activity toward hBChE (in words)": "very low percentage of inhibition"}]}, {"biological_target": "T2, hMAO A (Homo sapiens, UniProt P21397)", "T2 construct": "purchased Sigma-Aldrich (Milan, Italy)", "T2 sequence (P21397 1-527)": "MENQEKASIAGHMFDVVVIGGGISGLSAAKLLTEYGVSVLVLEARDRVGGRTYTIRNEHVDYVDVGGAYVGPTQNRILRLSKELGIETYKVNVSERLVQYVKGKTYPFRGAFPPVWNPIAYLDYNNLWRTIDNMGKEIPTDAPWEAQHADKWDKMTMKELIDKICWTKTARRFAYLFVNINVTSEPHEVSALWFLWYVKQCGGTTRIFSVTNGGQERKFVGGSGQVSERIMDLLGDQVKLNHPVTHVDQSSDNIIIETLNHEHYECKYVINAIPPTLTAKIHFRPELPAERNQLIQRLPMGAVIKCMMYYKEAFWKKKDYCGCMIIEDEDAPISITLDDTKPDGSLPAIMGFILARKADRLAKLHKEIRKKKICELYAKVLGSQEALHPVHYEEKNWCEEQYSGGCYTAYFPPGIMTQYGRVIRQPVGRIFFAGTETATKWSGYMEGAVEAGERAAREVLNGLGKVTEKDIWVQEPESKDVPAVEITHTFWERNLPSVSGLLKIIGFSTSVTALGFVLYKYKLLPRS", "assay": "Inhibition of human recombinant MAO A, spectrofluorimetric kynuramine assay", "format": "biochemical", "details": "human recombinant MAO A on Supersomes; 10 μM; mean ± SEM; read-out: % Inhibition at 10 μM hMAO A", "units": {"inhibition at 10 µM": "%"}, "procedure": "All human enzymes, substrates and reagents were from Sigma-Aldrich (Milan, Italy). Experiments were run in 96-well plates from Greiner Bio-One (Kremsmenster, Austria) with an Infinite M1000 Pro multiplate reader (Tecan, Cernusco sul Naviglio, Italy). […] For studies addressing MAOs inhibition the spectrofluorimetric protocol was based on the oxidative deamination of kynuramine to 4-hydroxyquinoline measured in black, flat-bottom polystyrene plates [29]. Incubations were performed in triplicate and results were expressed as the mean ± SEM from 3 independent experiments. The values of IC50 were calculated by nonlinear regressions using GraphPad Prism 5.00 (GraphPad Software, San Diego, CA, USA).", "values": [{"smiles": "Cc1ccc(-c2c(-c3ccccc3S(C)(=O)=O)oc3c2c(=O)oc2ccccc23)cc1", "note": "[Compound 3a]", "inhibition at 10 µM": "< 5"}, {"smiles": "COc1ccc(-c2c(-c3ccccc3S(C)(=O)=O)oc3c2c(=O)oc2ccccc23)cc1", "note": "[Compound 3b]", "inhibition at 10 µM": "< 5"}, {"smiles": "CS(=O)(=O)c1ccccc1-c1oc2c(c1-c1cccs1)c(=O)oc1ccccc12", "note": "[Compound 3d]", "inhibition at 10 µM": "< 5"}]}, {"biological_target": "T2, hMAO A", "assay": "Inhibition of human recombinant MAO A, spectrofluorimetric kynuramine assay", "format": "biochemical", "details": "read-out: % Inhibition at 10 μM hMAO A", "units": {"inhibition at 10 µM": "%"}, "values": [{"smiles": "Cc1ccc([C@@H]2c3c(c4ccccc4oc3=O)O[C@H]2c2ccccc2S(C)(=O)=O)cc1", "note": "[Compound 2a]", "inhibition at 10 µM": "47 ± 3"}, {"smiles": "COc1ccc([C@@H]2c3c(c4ccccc4oc3=O)O[C@H]2c2ccccc2S(C)(=O)=O)cc1", "note": "[Compound 2b]", "inhibition at 10 µM": "45 ± 1"}, {"smiles": "CS(=O)(=O)c1ccccc1[C@@H]1Oc2c(c(=O)oc3ccccc23)[C@H]1c1ccc(Cl)cc1", "note": "[Compound 2c]", "inhibition at 10 µM": "16 ± 14"}, {"smiles": "CS(=O)(=O)c1ccccc1[C@@H]1Oc2c(c(=O)oc3ccccc23)[C@H]1c1cccs1", "note": "[Compound 2d]", "inhibition at 10 µM": "42 ± 4"}]}, {"biological_target": "T2, hMAO A", "assay": "Inhibition of human recombinant MAO A, spectrofluorimetric kynuramine assay", "format": "biochemical", "details": "summary of Table 1; 10 μM", "values": [{"smiles": "Cc1ccc(-c2c(-c3ccccc3S(C)(=O)=O)oc3c2c(=O)oc2ccccc23)cc1", "note": "[Compound 3a]", "inhibition of MAO A activity (in words)": "inactive"}, {"smiles": "COc1ccc(-c2c(-c3ccccc3S(C)(=O)=O)oc3c2c(=O)oc2ccccc23)cc1", "note": "[Compound 3b]", "inhibition of MAO A activity (in words)": "inactive"}, {"smiles": "CS(=O)(=O)c1ccccc1-c1oc2c(c1-c1cccs1)c(=O)oc1ccccc12", "note": "[Compound 3d]", "inhibition of MAO A activity (in words)": "no inhibition"}]}, {"biological_target": "T3, hAChE (Homo sapiens, UniProt P22303)", "T3 construct": "purchased Sigma-Aldrich (Milan, Italy)", "T3 sequence (P22303 32-614)": "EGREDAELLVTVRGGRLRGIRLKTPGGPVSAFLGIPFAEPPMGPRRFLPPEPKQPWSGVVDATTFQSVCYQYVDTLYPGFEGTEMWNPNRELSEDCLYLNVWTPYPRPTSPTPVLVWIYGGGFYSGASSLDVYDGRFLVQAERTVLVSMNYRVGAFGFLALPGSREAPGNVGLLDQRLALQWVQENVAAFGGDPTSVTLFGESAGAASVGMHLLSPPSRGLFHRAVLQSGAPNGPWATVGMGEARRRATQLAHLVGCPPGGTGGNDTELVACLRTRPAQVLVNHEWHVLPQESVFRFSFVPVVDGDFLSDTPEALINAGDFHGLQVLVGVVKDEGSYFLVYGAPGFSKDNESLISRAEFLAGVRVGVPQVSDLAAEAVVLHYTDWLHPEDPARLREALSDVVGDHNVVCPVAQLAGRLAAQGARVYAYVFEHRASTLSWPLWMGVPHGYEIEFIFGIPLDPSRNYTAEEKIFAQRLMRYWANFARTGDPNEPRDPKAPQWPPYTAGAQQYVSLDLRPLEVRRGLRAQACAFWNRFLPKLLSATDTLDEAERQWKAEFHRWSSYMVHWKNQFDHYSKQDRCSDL", "assay": "biochemical", "details": "Lineweaver-Burk plots, inhibitor 0–15 μM", "procedure": "All human enzymes, substrates and reagents were from Sigma-Aldrich (Milan, Italy). Experiments were run in 96-well plates from Greiner Bio-One (Kremsmenster, Austria) with an Infinite M1000 Pro multiplate reader (Tecan, Cernusco sul Naviglio, Italy). The inhibition of ChEs was determined by following Ellman’s spectrophotometric assay in transparent, flat-bottom plates [18]. […] Incubations were performed in triplicate and results were expressed as the mean ± SEM from 3 independent experiments. The values of IC50 were calculated by nonlinear regressions using GraphPad Prism 5.00 (GraphPad Software, San Diego, CA, USA). […] Apparent inhibition constants and kinetic parameters were calculated within the “Enzyme kinetics” module of Prism.", "values": [{"smiles": "CS(=O)(=O)c1ccccc1-c1oc2c(c1-c1cccs1)c(=O)oc1ccccc12", "note": "[Compound 3d]", "inhibition mechanism for AChE": "mixed-type or a non-competitive inhibition mechanism; also recorded: mixed-type kinetics; also recorded: mixed-type or non-competitive binding mode"}]}, {"biological_target": "T3, hAChE", "assay": "biochemical", "details": "Lineweaver-Burk plots, inhibitor 0–15 μM, substrate S-acetylthiocholine 0.033 to 0.2 mM; read-out: Ki AChE", "units": {"Ki": "µM"}, "values": [{"smiles": "CS(=O)(=O)c1ccccc1-c1oc2c(c1-c1cccs1)c(=O)oc1ccccc12", "note": "[Compound 3d]", "Ki": "9.7 ± 0.6"}]}, {"biological_target": "T3, hAChE", "assay": "biochemical", "details": "human AChE; mean of three independent experiments ± SEM", "units": {"IC50": "µM"}, "values": [{"smiles": "Cc1ccc([C@@H]2c3c(c4ccccc4oc3=O)O[C@H]2c2ccccc2S(C)(=O)=O)cc1", "note": "[Compound 2a]", "IC50": "5.5 ± 0.7"}, {"smiles": "COc1ccc([C@@H]2c3c(c4ccccc4oc3=O)O[C@H]2c2ccccc2S(C)(=O)=O)cc1", "note": "[Compound 2b]", "IC50": "6.1 ± 0.3"}, {"smiles": "CS(=O)(=O)c1ccccc1[C@@H]1Oc2c(c(=O)oc3ccccc23)[C@H]1c1ccc(Cl)cc1", "note": "[Compound 2c]", "IC50": "4 ± 0.7"}, {"smiles": "CS(=O)(=O)c1ccccc1[C@@H]1Oc2c(c(=O)oc3ccccc23)[C@H]1c1cccs1", "note": "[Compound 2d]", "IC50": "4 ± 0.5"}, {"smiles": "Cc1ccc(-c2c(-c3ccccc3S(C)(=O)=O)oc3c2c(=O)oc2ccccc23)cc1", "note": "[Compound 3a]", "IC50": "4.4 ± 0.5"}, {"smiles": "COc1ccc(-c2c(-c3ccccc3S(C)(=O)=O)oc3c2c(=O)oc2ccccc23)cc1", "note": "[Compound 3b]", "IC50": "5.7 ± 1"}, {"smiles": "CS(=O)(=O)c1ccccc1-c1oc2c(c1-c1cccs1)c(=O)oc1ccccc12", "note": "[Compound 3d]", "IC50": "4.1 ± 0.7"}]}, {"biological_target": "T4, hMAO B (Homo sapiens, UniProt P27338)", "T4 construct": "purchased Sigma-Aldrich (Milan, Italy)", "T4 sequence (P27338 1-520)": "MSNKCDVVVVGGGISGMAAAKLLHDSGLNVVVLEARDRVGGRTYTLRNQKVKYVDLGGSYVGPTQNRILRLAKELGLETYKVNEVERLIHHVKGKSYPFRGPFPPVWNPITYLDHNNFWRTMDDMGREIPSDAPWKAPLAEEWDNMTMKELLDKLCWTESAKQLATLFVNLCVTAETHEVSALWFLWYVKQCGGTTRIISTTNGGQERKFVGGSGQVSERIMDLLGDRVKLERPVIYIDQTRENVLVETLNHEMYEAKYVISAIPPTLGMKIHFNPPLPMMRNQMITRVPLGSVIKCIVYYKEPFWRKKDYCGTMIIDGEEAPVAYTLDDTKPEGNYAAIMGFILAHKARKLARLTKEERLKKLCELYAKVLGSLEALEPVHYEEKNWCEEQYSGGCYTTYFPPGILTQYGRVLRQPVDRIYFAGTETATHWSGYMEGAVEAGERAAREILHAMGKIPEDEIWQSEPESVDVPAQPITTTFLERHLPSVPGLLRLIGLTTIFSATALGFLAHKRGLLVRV", "assay": "Inhibition of human recombinant MAO B, spectrofluorimetric kynuramine assay", "format": "biochemical", "details": "not given", "units": {"IC50": "µM"}, "values": [{"smiles": "CS(=O)(=O)c1ccccc1-c1oc2c(c1-c1cccs1)c(=O)oc1ccccc12", "note": "[Compound 3d]", "IC50": "0.561 ± 0.085"}]}, {"biological_target": "T4, hMAO B", "assay": "Inhibition of human recombinant MAO B, spectrofluorimetric kynuramine assay", "format": "biochemical", "details": "human recombinant MAO B on Supersomes; 10 μM; mean ± SEM; read-out: % Inhibition at 10 μM hMAO B", "units": {"inhibition at 10 µM": "%"}, "values": [{"smiles": "Cc1ccc(-c2c(-c3ccccc3S(C)(=O)=O)oc3c2c(=O)oc2ccccc23)cc1", "note": "[Compound 3a]", "inhibition at 10 µM": 32}, {"smiles": "COc1ccc(-c2c(-c3ccccc3S(C)(=O)=O)oc3c2c(=O)oc2ccccc23)cc1", "note": "[Compound 3b]", "inhibition at 10 µM": "43 ± 1"}]}, {"biological_target": "T4, hMAO B", "assay": "Inhibition of human recombinant MAO B, spectrofluorimetric kynuramine assay", "format": "biochemical", "details": "read-out: % Inhibition at 10 μM hMAO B", "units": {"inhibition at 10 µM": "%"}, "values": [{"smiles": "Cc1ccc([C@@H]2c3c(c4ccccc4oc3=O)O[C@H]2c2ccccc2S(C)(=O)=O)cc1", "note": "[Compound 2a]", "inhibition at 10 µM": "40 ± 8"}, {"smiles": "COc1ccc([C@@H]2c3c(c4ccccc4oc3=O)O[C@H]2c2ccccc2S(C)(=O)=O)cc1", "note": "[Compound 2b]", "inhibition at 10 µM": "39 ± 6"}, {"smiles": "CS(=O)(=O)c1ccccc1[C@@H]1Oc2c(c(=O)oc3ccccc23)[C@H]1c1ccc(Cl)cc1", "note": "[Compound 2c]", "inhibition at 10 µM": "11 ± 6"}, {"smiles": "CS(=O)(=O)c1ccccc1[C@@H]1Oc2c(c(=O)oc3ccccc23)[C@H]1c1cccs1", "note": "[Compound 2d]", "inhibition at 10 µM": "17 ± 10"}]}, {"system": "not listed separately", "assay": "Precipitation in the cell assay conditions", "format": "physicochemical", "details": "20 μM, SH-SY5Y cell assay conditions", "procedure": "The cell viability of human neuroblastoma SH-SY5Y cells was measured as previously reported in ref. [29]. […] Briefly, cells were plated at a concentration of 4.5 × 10^4 cells/well and cultured in Dulbecco’s modified Eagle’s medium (DMEM) high glucose supplemented with 10% (v/v) heat-inactivated fetal bovine serum (FBS), 2 mM L-glutamine, 100 U/mL penicillin, and 100 μg/mL streptomycin at 37 °C in an atmosphere of 5% CO2 in 96 wells/plate. […] Then, cells were incubated for 2 h at 37 °C and 5% CO2 with 0.5 mg/mL of MTT, and the formazan crystals in the cells were solubilized with absolute ethanol. […] Cell viability was expressed as a percentage of the negative control (CTRL), represented by untreated cells, which was set at 100%. Data are the mean ± SD from three independent experiments, each performed in triplicate and analyzed using GraphPad Prism 5.0 (GraphPad Software Inc., San Diego, CA, USA). Statistical significance was calculated using a one-way analysis of variance (ANOVA) followed by Dunnett’s multiple comparison test. Levels of significance refer to untreated cells: * p < 0.05.", "values": [{"smiles": "Cc1ccc([C@@H]2c3c(c4ccccc4oc3=O)O[C@H]2c2ccccc2S(C)(=O)=O)cc1", "note": "[Compound 2a]", "precipitation in the assay conditions at higher concentrations": "precipitation"}, {"smiles": "COc1ccc([C@@H]2c3c(c4ccccc4oc3=O)O[C@H]2c2ccccc2S(C)(=O)=O)cc1", "note": "[Compound 2b]", "precipitation in the assay conditions at higher concentrations": "precipitation"}, {"smiles": "CS(=O)(=O)c1ccccc1[C@@H]1Oc2c(c(=O)oc3ccccc23)[C@H]1c1cccs1", "note": "[Compound 2d]", "precipitation in the assay conditions at higher concentrations": "precipitation"}]}]}
